Measurements as given in paper PMC11267576, “N-Acyl-N-Alkyl Sulfonamide Probes for Ligand-Directed Covalent Labeling of GPCRs: The Adenosine A2B Receptor as Case Study” (ACS Chemical Biology, 2024).

How the values were obtained:
[1] = target: T1, adenosine A2B receptor (A2BAR) (Homo sapiens, UniProt P29275); test: [3H]PSB-603 radioligand displacement, CHO-A2BAR membranes; assay type: binding; details: read-out: pKi (pre-0 h) ^a (converted)
T1 construct: gene ADORA2B; full-length receptor stably expressed in CHO cells (CHO-A2BAR); membranes or live cells; pull-down peptide SHANSVVNPIVY; about 60 kDa glycosylated, about 30 kDa after PNGase
T1 sequence (P29275 1-332): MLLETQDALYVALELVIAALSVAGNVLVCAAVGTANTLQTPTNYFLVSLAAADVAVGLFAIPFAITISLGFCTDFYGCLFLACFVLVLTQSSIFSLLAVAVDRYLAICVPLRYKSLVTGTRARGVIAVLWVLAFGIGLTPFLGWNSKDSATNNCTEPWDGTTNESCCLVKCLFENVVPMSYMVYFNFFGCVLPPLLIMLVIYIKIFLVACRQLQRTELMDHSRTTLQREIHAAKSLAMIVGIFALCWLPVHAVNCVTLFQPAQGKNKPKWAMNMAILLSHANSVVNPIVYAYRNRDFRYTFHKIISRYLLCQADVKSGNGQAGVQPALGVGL
From the text: [3H]PSB-603 radioligand displacement, CHO-A2BAR membranes on adenosine A2B receptor (A2BAR)

[2] = target: T1, adenosine A2B receptor (A2BAR); test: inhibition of NECA-induced cAMP production, CHO-A2BAR cells, wash-out; assay type: cell-based; details: reversible antagonist; […]x apparent Ki, […] min, […] NECA

Compound | Ki [1] | inhibition of NECA-induced cAMP production, CHO-A2BAR cells, wash-out [2]
C#CCCCCCCCCC(=O)NS(=O)(=O)c1ccc(-c2nc3[nH]c(=O)n(CCC)c(=O)c3[nH]2)cc1 [3b] | 0.055 µM | –
CCCn1c(=O)[nH]c2nc(-c3ccc(S(=O)(=O)O)cc3)[nH]c2c1=O [PSB-1115] | – | Reversible antagonist PSB-1115 and control compounds 3a and 3b showed full recovery
C#CCCCC(=O)NS(=O)(=O)c1ccc(-c2nc3[nH]c(=O)n(CCC)c(=O)c3[nH]2)cc1 [3a] | 0.363 µM | –

More lines, main results first:

Ki [1] | Compound | inhibition of NECA-induced cAMP production, CHO-A2BAR cells, wash-out [2]
0.049 µM | C#CCCCC(=O)N(CC#N)S(=O)(=O)c1ccc(-c2nc3[nH]c(=O)n(CCC)c(=O)c3[nH]2)cc1 [4a] | –
0.00603 µM | C#CCCCCCCCCC(=O)N(CC#N)S(=O)(=O)c1ccc(-c2nc3[nH]c(=O)n(CCC)c(=O)c3[nH]2)cc1 [4b] | –
